The target of this experiment is T1, Squalene synthase (Rattus norvegicus, UniProt Q02769).
T1 sequence (Q02769 whole entry): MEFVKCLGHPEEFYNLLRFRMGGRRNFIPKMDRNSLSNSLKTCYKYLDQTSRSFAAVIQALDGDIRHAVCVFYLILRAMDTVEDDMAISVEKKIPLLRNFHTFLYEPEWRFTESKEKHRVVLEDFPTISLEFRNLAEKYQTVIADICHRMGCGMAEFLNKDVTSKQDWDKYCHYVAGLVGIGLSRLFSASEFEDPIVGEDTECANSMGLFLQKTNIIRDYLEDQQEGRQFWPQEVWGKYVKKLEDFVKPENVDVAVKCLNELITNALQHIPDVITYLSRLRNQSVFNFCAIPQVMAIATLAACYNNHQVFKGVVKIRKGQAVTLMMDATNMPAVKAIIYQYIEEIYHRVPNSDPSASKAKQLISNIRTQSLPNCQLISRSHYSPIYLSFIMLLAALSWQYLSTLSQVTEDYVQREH
The experiment is described as follows: Inhibition of squalene synthetase was determined in rat liver microsomes. The conditions noted are these: read-out: I50. Details: species or system Microsome.
On to `CC(C)=CCC/C(C)=C/CC/C(C)=C/CCP(=O)(O)CP(=O)(O)O`, for which the IC50 is 31.5 µM.

Take `CC(C)=CCC/C(C)=C/CC/C(C)=C/CCCP(=O)(O)CP(=O)(O)O`: the IC50 was found to be 67 µM.

Turning to `CC(C)=CCC/C(C)=C/CC/C(C)=C/C=C/P(=O)(O)C(F)(F)P(=O)(O)O`, the IC50 worked out at 15.5 µM. Regarding `COP(=O)(O)CP(=O)(O)CC/C=C(\C)CC/C=C(\C)CCC=C(C)C`, the IC50 turned out to be 177 µM.

Turning to `CC(C)=CCC/C(C)=C/CC/C(C)=C/CCP(=O)(O)OP(=O)(O)O`, the IC50 amounted to 42 µM. The same measure for `CC(C)=CCC/C(C)=C/CC/C(C)=C/CCP(=O)(O)C(F)(F)P(=O)(O)O`: 29.9 µM; for `CC(C)=CCC/C(C)=C/CC/C(C)=C/C=C/P(=O)(O)CP(=O)(O)O`: 12.2 µM.

Source of the values: ChEMBL document CHEMBL1123968, “Isoprenoid (phosphinylmethyl)phosphonates as inhibitors of squalene synthetase” (J Med Chem, 1988).
